Where “and” joins values, the source holds several entries; their conditions need not be identical. Equal entries are not always repeated. Entries after “also recorded” stand apart in the source; their conditions may differ.
Tests used:
[1] = tested on: cochlear ganglion neurons; test: Survival of dissociated cochlear neurons in culture; type: cell-based; conditions: E21 rat cochlear ganglia; Formula II 500 nM; NT-3 2 ng/ml in parallel cultures; 48 hr
Protocol: Neuronal enriched cultures from embryonic day 21 (E21) rat cochlear ganglia were prepared as previously described (Ylikoski et al., Hear. Res., 1998, 124:17-26). The cultures were maintained in F14 medium (Life Technologies, Gaithesburg, Md.) containing 10% horse serum (Life Technologies). […] After 48 hr, cultures were fixed with 4% paraformaldehyde and responses were assessed under a phase contrast microscope. Surviving neurons were distinguished by a phase-bright cell body and definite neurites.

[2] = tested on: outer hair cells in organotypic cultures of the neonatal organ of Corti; test: Hair cell counts in neomycin-exposed cochlear explant cultures; type: cell-based, rat
Protocol: (§1) The basal half of cochleas containing the basal and middle turns were dissected from postnatal day 2 Wistar rats. The cultures were maintained on Nuclepore filters (pore size […]; Pleasanton, Calif.) placed on a metal grid in F12 medium (Life Technologies, Gaithersburg, Md.) containing 15% fetal bovine serum (Life Technologies). After a 2-hour-long stabilization period, explants were exposed to 100 mM neomycin sulfate (Sigma, St Louis, Mo.) for 48 hr.
(§2) Explants were fixed with 4% paraformaldehyde/0.5% glutaraldehyde in phosphate buffered saline (PBS), pH 7.4, for 30 min and dissected for surface preparations. They were stained with a 1:100 dilution of rhodamine-phalloidin in PBS containing 0.25% Triton X-l 00 overnight at 4° C. and mounted in Vectashield (Vector). Outer hair cell (OHC) numbers were quantified with a Zeiss Axiovert 100/135 epifluorescent microscope (Germany) connected to a Bio-Rad MRC-1024 confocal laser scanning system (Richmond, Calif.). Hair cells were characterized as missing if no stereocilia and cuticular plate were observed. Numbers of OHCs were evaluated using a 40×objective lens and an ocular grid. Nine to 1 fields filled by 30 OHCs in each of the 3 rows (when all of them were present) were studied from each explant. Basal and middle coils were analyzed separately. Three separate experiments, each including 4 explants of both conditions (neomycin and neomycin plus Formula II) were analyzed.
as §1, with “μM” for “mM”, “hr. The compounds of Formula I and the compound of Formula I were added at 500 nM at the time of initiation of the cultures and every 12 hr thereafter. Neomycin plus vehicle was used as a control.” for “hr.”
as §2, with “X-100” for “X-l 00”, “40x objective” for “40×objective”, “Several” for “Nine to 1”, “separately.” for “separately. Three separate experiments, each including 4 explants of both conditions (neomycin and neomycin plus Formula II) were analyzed.”

motorneurons = conditions: by inhibiting the JNK signaling pathway; Maroney et al., 1998; cited from earlier work
[3] = tested on: outer sensory hair cells of the organ of Corti; test: Cytocochleogram counts of lost outer sensory hair cells after noise trauma (Example 1); type: in vivo, guinea pig; conditions: day 21
Protocol: Baseline hearing of 8 pigmented guinea pigs (200-300 g) was tested by ABR as described below. ABR is a measure of hearing function. Four animals were treated with daily subcutaneous (s.c.) injections of the compound of Formula II, 1 mg/kg, starting 24 hours prior to noise trauma and lasting until 21 days after exposure to the noise trauma. Four animals served as controls and received only vehicle (the fourth animal died under anaesthesia). All the animals were exposed to traumatic octave band noise, center frequency 4.0 kHz, 125 dB SPL (sound pressure level) for 105 min.
After the treatment period of 21 days and measurement of ABRs, the animals were sacrificed and the temporal bones fixed by 4% PFA (paraformaldehyde) through perilymphatic perfusion. The left cochleas were dissected for surface specimens and the number of sensory hair cells in each auditory organ was evaluated by cytocochleograms. The upper halves of the cochleas were processed for cytocochleograms without embedding by staining cochlear whole mounts with rhodamine phalloidine (Molecular Probes, Eugene, Ore.) in PBS containing 0.25% Triton X-100 overnight at 4° C and mounted in Vectashield (Vector). Phalloidin is a specific marker for cellular F-actin. Basal halves of the cochleas were embedded in
Epon and processed for cytocochleograms. Selected sections of Epon-embedded cochlear turns were processed for fine structural study by electron microscopy.

[4] = single animal, 1 mg/kg s.c. daily, noise 125 dB SPL 105 min, 1 mg/kg

**Q.** What does the source list for CCSCc1ccc2c(c1)c1c3c(c4c5cc(CSCC)ccc5n5c4c1n2C1C[C@](O)(C(=O)OC)[C@]5(C)O1)CNC3=O [Formula II]?
**A.** survival of cochlear neurons [1]: as efficacious as NT-3; OHCs in the basal turn preserved ([2]; 500 nM Formula II co-incubated with neomycin for 48 hr, n=12): Approximately 90%; neomycin-induced sensory hair cell loss/degeneration ([2]; 500 nM compound together with neomycin, 48 hr, in words): reduced; also recorded: prevented hair cell loss; viability at 0.5 µM ([2]; Rattus norvegicus, 48 h, compound 500 nM plus 100 μM neomycin 48 hr, NEO = neomycin plus vehicle, each line a separate count, read-out: % preserved): 92%; death of motorneurons in vitro (motorneurons): prevent death of motorneurons in vitro; % OHC LOST, MEAN ([3]; mean of 4 Formula II animals): 6.1%; LOST OUTER SENSORY CELLS (OHC): OCH1, MEAN ([3]; mean of 4 Formula II animals): 133; LOST OUTER SENSORY CELLS (OHC): OCH2, MEAN ([3]; mean of 4 Formula II animals): 107; LOST OUTER SENSORY CELLS (OHC): OCH3, MEAN ([3]; mean of 4 Formula II animals): 143; TOTAL OHC LOST, MEAN ([3]; mean of 4 Formula II animals): 383; % OHC LOST [3, 4]: 3.1% and 0.8% and 1.4% and 19.0%; LOST OUTER SENSORY CELLS (OHC): OCH1 [3, 4]: 90 and 19 and 36 and 356; LOST OUTER SENSORY CELLS (OHC): OCH2 [3, 4]: 25 and 3 and 18 and 381; LOST OUTER SENSORY CELLS (OHC): OCH3 [3, 4]: 71 and 27 and 46 and 428; TOTAL OHC LOST [3, 4]: 186 and 49 and 100 and 1195

Reference: US6448283B1, “Methods for preventing/treating damage to sensory hair cells and cochlear neurons” (Cephalon, Inc., priority 1998, dated 2002)
